In patent US4562287A, “2-(4-Biphenylyl)-4-hexenoic acid and derivatives thereof having anti-inflammatory activity” (priority 1983, dated 1985):

Key:
[1] = test system: Carragenine induced edema; test: Anti-inflammatory activity on carragenine induced edema (Table 11); assay type: in vivo; conditions: 50 mg/Kg p.o.
[2] = test system: Carragenine induced edema; test: Carragenine induced edema, first test (Table 2); assay type: in vivo
Excerpt: |ANTI-INFLAMMATORY ACTIVITY. |Carragenine induced edema, first test.

SH Groups in serum = test: SH groups in serum (Table 8); assay type: in vivo; conditions: arthritis checks 70, 77
Joint's diameter = Joint's diameter in arthritis (Table 7); assay type: in vivo; set-up: unit not given here
[3] = test system: Freund's adjuvant induced arthritis; test: Freund's adjuvant induced arthritis, edema inhibition
[4] = test system: erytrocytes sedimetation rate (ESR); test: Erytrocytes sedimetation rate (ESR) (Table 8); assay type: in vivo; set-up: unit not given here; conditions: arthritis checks 41, 56
[5] = test system: Cotton-pellets induced granuloma; test: Cotton-pellets induced granuloma; assay type: in vivo; conditions: 200 mg/Kg p.o.
Excerpt: | Cotton-pellets induced granuloma.

Kaolin edema = test: Edema induced by different substances: kaolin (Table 3); assay type: in vivo
Excerpt: (§1) |Edema induced by different substances.

Serotonin edema = test: Edema induced by different substances: serotonin (Table 3); assay type: in vivo
Excerpt: as §1

Carragenine edema = test: Edema induced by different substances: carragenine (Table 3); assay type: in vivo
Excerpt: as §1

Dextrose edema = test: Edema induced by different substances: dextrose (Table 3); assay type: in vivo
Excerpt: as §1

Yeast edema = test: Edema induced by different substances: yeast (Table 3); assay type: in vivo
Excerpt: |Edema induced by different substances. | % edema inhibition

[6] = test system: Carragenine induced edema; test: Activity on carragenine induced edema (Table 9); assay type: in vivo
Excerpt: |Activity on carragenine induced edema.

[7] = test system: Hot plate, endurance time at 52° C.; test: Analgesic activity, Hot plate (II); assay type: in vivo
Protocol: (§2) Dose endurance time at 52° C. over checks

in vivo = conditions: po, rat, p.o., read-out: DL50 (the source's name)
pain threshold = test: Analgesic activity, RANDALL-SELLITO pain threshold; assay type: in vivo
Excerpt: | RANDALL-SELLITO pain threshold

[8] = test system: Hot plate, endurance time at 52° C.; test: Analgesic activity, Hot plate (I); assay type: in vivo; conditions: 50 mg/Kg p.o., 2 hours
Protocol: as §2

With `CC(=O)Oc1ccccc1C(=O)O` [Acetylsalicylic acid, reference compound] the “% inhibition” value [1] was 23%.

In the case of `CC(C)Cc1ccc(C(C)C(=O)O)cc1` (stereo not shown) [Ibuprofen], the “% inhibition” value ([2]; 12.5 mg/Kg p.o.) is reported as 27%, the “% inhibition” value ([2]; 25 mg/Kg p.o.) is reported as 33% and the “% inhibition” value ([2]; 50 mg/Kg p.o.) is reported as 47%. The “% inhibition” value ([2]; 100 mg/Kg p.o.) was 54%, the “SH groups diminution in %” value (SH Groups in serum; 20 mg/Kg p.o.) was 78% and the “SH groups diminution in %” value (SH Groups in serum; 40 mg/Kg p.o.) was 73%. For the same compound, the “% inhibition” value [1] was 40%, the “Joint's diameter” value (Joint's diameter; 20 mg/Kg p.o., 1 week, arthritis checks 0.48, 0.38) was 0.31 and the “Joint's diameter” value (Joint's diameter; 20 mg/Kg p.o., 2 weeks, arthritis checks 0.71, 0.75) was 0.53. The “Joint's diameter” value (Joint's diameter; 20 mg/Kg p.o., 3 weeks, arthritis checks 0.81, 0.79) was 0.65, the “Joint's diameter” value (Joint's diameter; 20 mg/Kg p.o., 4 weeks, arthritis checks 0.85, 0.89) was 0.81 and the “Joint's diameter” value (Joint's diameter; 40 mg/Kg p.o., 1 week, arthritis checks 0.48, 0.38) was 0.35. For the same compound, the “Joint's diameter” value (Joint's diameter; 40 mg/Kg p.o., 2 weeks, arthritis checks 0.71, 0.75) was 0.60, the “Joint's diameter” value (Joint's diameter; 40 mg/Kg p.o., 3 weeks, arthritis checks 0.81, 0.79) was 0.75 and the “Joint's diameter” value (Joint's diameter; 40 mg/Kg p.o., 4 weeks, arthritis checks 0.85, 0.89) was 0.80. The Edema inhibition % ([3]; 20 mg/Kg p.o., 2 days) was 34%, the Edema inhibition % ([3]; 20 mg/Kg p.o., 4 days) was 29% and the Edema inhibition % ([3]; 20 mg/Kg p.o., 8 days) was 19%. It also gave an Edema inhibition % ([3]; 20 mg/Kg p.o., 12 days) of 24%, an Edema inhibition % ([3]; 20 mg/Kg p.o., 16 days) of 14% and an Edema inhibition % ([3]; 20 mg/Kg p.o., 24 days) of 4%. For the same compound, the Edema inhibition % ([3]; 40 mg/Kg p.o., 2 days) was 32%, the Edema inhibition % ([3]; 40 mg/Kg p.o., 4 days) was 17% and the Edema inhibition % ([3]; 40 mg/Kg p.o., 8 days) was 26%. It also gave an Edema inhibition % ([3]; 40 mg/Kg p.o., 12 days) of 19%, an Edema inhibition % ([3]; 40 mg/Kg p.o., 16 days) of 27% and an Edema inhibition % ([3]; 40 mg/Kg p.o., 20 days) of 19%. The Edema inhibition % ([3]; 40 mg/Kg p.o., 24 days) was 9%, the E.S.R. ([4]; 20 mg/Kg p.o.) was 58 and the E.S.R. ([4]; 40 mg/Kg p.o.) was 30.

For `CCCCC1C(=O)N(c2ccccc2)N(c2ccc(O)cc2)C1=O` (stereo not shown) [Oxyphenbutazone, reference compound], the “% inhibition” value [1] was 41% and the “% inhibition” value [5] was 24%.

With `CCCCC1C(=O)N(c2ccccc2)N(c2ccccc2)C1=O` [PHENYL-BUTAZONE, phenylbutazone, reference compound] the “% edema inhibition” value (Kaolin edema; 50 mg/Kg p.o.) was 41%, the “% edema inhibition” value (Kaolin edema; 100 mg/Kg p.o.) was 40% and the “% edema inhibition” value (Kaolin edema; 200 mg/Kg p.o.) was 53%. The “% edema inhibition” value (Serotonin edema; 50 mg/Kg p.o.) was 24%, the “% edema inhibition” value (Serotonin edema; 100 mg/Kg p.o.) was 12% and the “% edema inhibition” value (Serotonin edema; 200 mg/Kg p.o.) was 25%. The “% inhibition” value ([2]; 75 mg/Kg p.o.) was 43%, the “% inhibition” value ([2]; 150 mg/Kg p.o.) was 46% and the “% edema inhibition” value (Carragenine edema; 50 mg/Kg p.o.) was 13%. For the same compound, the “% edema inhibition” value (Carragenine edema; 100 mg/Kg p.o.) was 32%, the “% edema inhibition” value (Carragenine edema; 200 mg/Kg p.o.) was 61% and the “% edema inhibition” value (Dextrose edema; 50 mg/Kg p.o.) was 0%. The “% edema inhibition” value (Dextrose edema; 100 mg/Kg p.o.) was 0%, the “% edema inhibition” value (Dextrose edema; 200 mg/Kg p.o.) was 18% and the “% edema inhibition” value (Yeast edema; 50 mg/Kg p.o.) was 7%. The “% edema inhibition” value (Yeast edema; 100 mg/Kg p.o.) was 23% and the “% edema inhibition” value (Yeast edema; 200 mg/Kg p.o.) was 18%.

For `CC=CCC(C(=O)O)c1ccc(-c2ccc(F)cc2)cc1` (stereo not shown) [SCR 159, 2-[4-biphenylyl-(4' fluoro)]4-hexenoic acid], the “% inhibition” value [1] was 32%, the Inhibition % ([6]; 53 mg/Kg p.o.) was 29% and the Inhibition % ([6]; 80 mg/Kg p.o.) was 26%. The Inhibition % ([6]; 120 mg/Kg p.o.) was 26%, the “endurance time at 52° C. over checks” value ([7]; Hot plate (II), 35,6 mg/Kg p.o., 1 hour) was 22 and the “endurance time at 52° C. over checks” value ([7]; Hot plate (II), 35,6 mg/Kg p.o., 2 hours) was 43. The “endurance time at 52° C. over checks” value ([7]; Hot plate (II), 53,45 mg/Kg p.o., 1 hour) was 45, the “endurance time at 52° C. over checks” value ([7]; Hot plate (II), 53,45 mg/Kg p.o., 2 hours) was 29 and the “endurance time at 52° C. over checks” value ([7]; Hot plate (II), 80,18 mg/Kg p.o., 1 hour) was 26. For the same compound, the LD50 (in vivo) was 900 mg/kg, the “RANDALL-SELLITO pain threshold over checks” value (pain threshold; 23,7 mg/Kg p.o., 1 hour) was 55 and the “RANDALL-SELLITO pain threshold over checks” value (pain threshold; 23,7 mg/Kg p.o., 2 hours) was 7. For the same compound, the “RANDALL-SELLITO pain threshold over checks” value (pain threshold; 35,6 mg/Kg p.o., 1 hour) was 49, the “RANDALL-SELLITO pain threshold over checks” value (pain threshold; 35,6 mg/Kg p.o., 2 hours) was 32 and the “RANDALL-SELLITO pain threshold over checks” value (pain threshold; 53,45 mg/Kg p.o., 1 hour) was 47. The “RANDALL-SELLITO pain threshold over checks” value (pain threshold; 53,45 mg/Kg p.o., 2 hours) was 16 and the “endurance time at 52° C. over checks” value [8] was 38.
